Experimental findings from patent publication US10822535B2, “Modified acid compositions as alternatives to conventional acids in the oil and gas industry” (Fluid Energy Group Ltd., priority 2017, dated 2020) are described below.

In brackets after ≈: the same amount, converted by molar mass. Read-outs that look alike come from different tables or passages of the source.

In one series the test system is Corophium volutator. Briefly: Sediment bioassay using an amphipod (OSPARCOM 2006 Part A). The format is in vivo. The note with it: sediment phase, via dried sediment, nominal concentrations. Here is the method:
OSPARCOM Guidelines (2006) Part A. A Sediment Bioassay Using an Amphipod Corophium sp
This study was commissioned to determine the sediment phase toxicity of the composition of monoethanolamine to the intertidal amphipod Corophium volutator. […] The result is based on nominal concentrations and was calculated by Linear Interpolation within the CETIS suite of statistical analysis.

For a further series, the system named is Skeletonema sp. Nature of the series: Marine algal growth inhibition test (ISO 10253). The format is cell-based. The note with it: 72 h, WAFs, nominal concentrations, read-out: 72 h EC(r)50. The source says: ISO 10253 (2016) Water Quality—Marine Algal Growth Inhibition Test with Skeletonema Sp. This study was commissioned to determine the aquatic phase toxicity of the composition of monoethanolamine to the marine unicellular algae Skeletonema sp. […] It is the results from this test that has been reported.

Series [1] is described as follows: Aerobic degradability in seawater (OECD 306). Here is the method: This study was commissioned to determine the aerobic degradability of the composition of monoethanolamine in seawater. […] The ThODNO3 value was determined from the chemical formula of the compound tested.
The OECD 306 guideline states the test material can be considered to be inhibitory to bacteria (at the concentration used) if the BOD of the mixture of reference and test materials is less than the sum of the BOD of the separate solutions of the two substances.

The nature of series [2]: Acute lethal toxicity to marine copepods (ISO 14669). The note with it: Acartia tonsa (marine copepod), in vivo, other: aquatic phase (waterborne exposure), Water Accommodated Fraction, nominal concentrations. Here is the method: A series of test were carried out to assess the environmental impact of monoethanoamine. A stock solution of 98-99% pure monoethanolamine was sent to be tested. The solution was diluted where necessary.
Determination of Acute Lethal Toxicity to Marine Copepods (Copepoda; Crustacea) (ISO 14669 (1999) Water Quality)
This study was commissioned to determine the aquatic phase toxicity of monoethanolamine to the marine copepod Acartia tonsa. The A. tonsa toxicity LC50 test was conducted in accordance with the study plan except for the following deviation and interferences but met all other relevant validity criteria. In the definitive test the temperature of the dilution water was below acceptable limits by a maximum of 0.7° C., the pH was below acceptable limits by a maximum of 0.01 units. These deviations were not expected to have an impact on the test as there was no control mortalities.

The next series deals with Cyprinodon variegatus. Nature of the series: Marine fish 96 h limit test (OSPAR). The series is classed as in vivo. The note with it: 96 h exposure at 199.7 mg/l (Water Accommodated Fraction). Here is the method: This study was commissioned to determine the aquatic (96 h limit test) toxicity of the composition of monoethanolamine to the marine fish Cyprinodon variegatus.
There were no interferences in this test. Test conditions of exposure were within formal and informal limits of acceptability except for the exception noted below. There were ten fish used in both the test and control tanks, with no control mortality observed.
The test concentration was derived from the test material EC/LC50 value between the most sensitive acute toxicity test species Skeletonema sp. and A. tonsa.

In general, LC50 refers to the concentration lethal to half of the exposed cells or organisms. A lower LC50 goes with greater toxicity. With `NCCO` [monoethanolamine], in the series with Corophium volutator, the “10 day LC50” value was 6,660 mg/kg. The EC50 is 200 mg/L (≈ 3.27 mM) in the series on Skeletonema sp. (definitive test) and 509 mg/L (≈ 8.33 mM) in the series with Skeletonema sp. (range-finding test). Also, the biodegradation in series [1] stood at 71%. Further, the “percentage inhibition of bacteria” value in series [1] (in 28 days) is recorded as 12%. The LC50 at 48 h in series [2] (48 h LC50, definitive test, seawater) was 434 mg/L (≈ 7.1 mM); in series [2] (48 h LC50, range-finding test), 550 mg/L (≈ 9 mM). Further, in the series on Cyprinodon variegatus, the mortality result was “no mortalities”.

Take `O=C([O-])c1ccccc1.[Na+]` [sodium benzoate, reference compound]: the “degradation of reference material” value in series [1] (first 14 days, seawater) was “more than 60%”.
